“And” between values parts separate entries of the source, which are not always exact repeats. Equal values may be shown once. The source made the active and inactive calls. The rule behind the calls is not given here.

Consider 46 compounds from PubChem BioAssay AID651759 (The Scripps Research Institute Molecular Screening Center, 2012).

Perilipin-5 (Homo sapiens) + 1-acylglycerol-3-phosphate O-acyltransferase ABHD5 (Homo sapiens), sequence (Q00G26 whole entry, looked up): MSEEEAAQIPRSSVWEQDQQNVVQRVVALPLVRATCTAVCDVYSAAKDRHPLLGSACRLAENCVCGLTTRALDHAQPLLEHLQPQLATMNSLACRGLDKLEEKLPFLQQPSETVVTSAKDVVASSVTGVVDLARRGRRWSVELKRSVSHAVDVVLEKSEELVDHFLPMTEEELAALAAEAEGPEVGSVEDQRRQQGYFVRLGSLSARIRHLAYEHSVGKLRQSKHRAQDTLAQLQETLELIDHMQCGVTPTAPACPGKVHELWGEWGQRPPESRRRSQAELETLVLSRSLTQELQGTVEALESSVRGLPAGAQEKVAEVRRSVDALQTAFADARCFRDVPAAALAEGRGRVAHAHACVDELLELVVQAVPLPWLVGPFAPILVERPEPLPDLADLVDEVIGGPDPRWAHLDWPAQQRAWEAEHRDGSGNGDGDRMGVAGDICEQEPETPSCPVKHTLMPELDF
Perilipin-5 (Homo sapiens) + 1-acylglycerol-3-phosphate O-acyltransferase ABHD5 (Homo sapiens), sequence (Q8WTS1 whole entry, looked up): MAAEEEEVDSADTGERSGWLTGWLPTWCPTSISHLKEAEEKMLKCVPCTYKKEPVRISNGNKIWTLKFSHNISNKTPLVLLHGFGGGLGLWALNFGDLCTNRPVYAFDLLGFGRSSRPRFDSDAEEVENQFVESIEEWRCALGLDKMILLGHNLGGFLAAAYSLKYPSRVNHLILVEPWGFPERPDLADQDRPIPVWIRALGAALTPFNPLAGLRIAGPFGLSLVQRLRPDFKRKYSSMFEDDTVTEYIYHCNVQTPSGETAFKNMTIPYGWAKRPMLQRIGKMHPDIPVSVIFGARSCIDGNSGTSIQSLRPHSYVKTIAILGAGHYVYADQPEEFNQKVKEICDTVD

This assay has as its target Perilipin-5 (Homo sapiens) + 1-acylglycerol-3-phosphate O-acyltransferase ABHD5 (Homo sapiens) (UniProt Q00G26+Q8WTS1). In words: ABHD5-PLIN5 interaction inhibitors, late-stage follow-up, cell lysate, luminescence, proteins expressed in HEK293T (AID 651759).
Take `Cc1ccc2c(CC(=O)N3CCN(S(=O)(=O)c4ccc5c(c4)OCCO5)CC3)coc2c1`: the IC50 is 2.97 µM and 5.73 µM.

Regarding `COc1ccccc1-c1cc(C(=O)NC2CCN(C)CC2)c2ccc(Cl)c(C)c2n1`, the IC50 was > 13.3 µM (inactive).

With `COc1cc(OC)cc(C(=O)NC(=S)N(Cc2ccccc2)C(C)C)c1`, the IC50 was 2.15 µM.

For `COc1ccc(NC(=S)N(CCCN2CCCC2)Cc2cccn2Cc2ccc(Cl)cc2)cc1Cl`, the IC50 entry was “inactive”.

As to `C=C[C@]1(C)C[C@@H](OC(=O)CSCCN(CC)CC)[C@]2(C)C(C)CC[C@]3(CCC(=O)[C@H]32)[C@@H](C)[C@@H]1O` (stereo partly specified), the IC50 was 4.45 µM.

`CCN(CC)CCOCCOC(=O)C1(c2ccccc2)CCCC1`: the IC50 is 1.26 µM.

Take `CC(CCc1ccco1)NC(=O)CCc1nnc2ccc(NCc3ccccc3Cl)nn12` (stereo unspecified): the IC50 is 2.89 µM.

As to `CCN(CC)CCNC(=O)c1ccc(NC(=O)c2cn(-c3ccccc3)nc2-c2cccs2)cc1`, the IC50 result was “inactive”.

On to `CC1CCN(S(=O)(=O)c2ccc(NC(=O)Cc3ccccc3)cc2)CC1`, for which the concentration for half-maximal inhibition (IC50) is 7.89 µM.

For `CCN(CC)CCC(C)OC(c1ccccc1)c1ccccc1` (stereo unspecified), the half-maximal inhibitory concentration (IC50) is 1.38 µM.

Take `CCOC(=O)c1c(NC(C)=O)sc2c1CCC(C=O)=C2Sc1ccccc1`: the IC50 was 2.25 µM.

Take `CN(C)CCN(Cc1ccco1)c1ccccn1`: the IC50 was > 39.8 µM (inactive).

In the case of `Cc1cc(C)c2nc(NNC(=O)c3ccc(S(=O)(=O)N4CCCC(C)C4)cc3)sc2c1` (stereo unspecified), the half-inhibitory concentration (IC50) was 3.89 µM.

Regarding `FC(F)(F)c1cccc(NC(=S)N(CCCN2CCCC2)Cc2cccn2Cc2ccc(Cl)cc2)c1`, the IC50 entry is “inactive”.

Consider `Cc1ccc2nc3cc([N+](=O)[O-])cc([N+](=O)[O-])c3cc2c1`, for which the IC50 is 1.44 µM.

With `CN(C)CCOC1(Cc2ccc(F)cc2)CCC(C(C)(C)C)CC1` (stereo unspecified), the IC50 is > 39.8 µM (inactive).

`CN(C)CCCN(C(=O)CCc1ccccc1)c1nc2ccc(Cl)cc2s1`: the IC50 result was “inactive”.

`CCN(CC)CCOc1ccc(/C(=C(/Cl)c2ccccc2)c2ccccc2)cc1`: the IC50 is 1.32 µM.

`COCCN(CCOC)c1nc(N)c2c(N)nc3c(c2c1C#N)CC(=O)N3Cc1ccc(Cl)cc1`: the IC50 is > 39.8 µM (inactive).

Regarding `CCOC(=O)c1c(NC(=O)/C=C/C(=O)O)sc(C)c1-c1ccc(C(C)(C)C)cc1`, the IC50 was 4.5 µM.

Turning to `O=c1[nH]c(C2CCN(S(=O)(=O)c3ccc(S(=O)(=O)NC4CC4)cc3)CC2)nc2c1nnn2Cc1ccc(F)cc1`, the IC50 was 1.33 µM.

Regarding `CC1CCN(S(=O)(=O)c2ccc(NC(=O)Cc3cccs3)cc2)CC1`, the IC50 was 9 µM.

Consider `CC(=O)Cc1cc(O)c2ccccc2c1OC(=O)c1ccc(Br)cc1`, for which the IC50 is 4.75 µM.

`CCCNC(=O)Nc1ccc2c(c1)N(C)C(=O)c1ccccc1S2`: the half-inhibitory concentration (IC50) is 5.58 µM.

For the compound `CC(=O)Oc1ccc(C23c4ccccc4C2(OC(C)=O)c2cc(OC(C)=O)ccc23)cc1` (stereo unspecified), the IC50 was > 39.8 µM (inactive).

As for `CCCCNC(=O)Nc1ccc2c(c1)N(C)C(=O)c1ccccc1S2`, the IC50 was 3.12 µM.

For the compound `CN1CCC(=C2c3ccccc3CC(=O)c3sccc32)CC1`, the IC50 is > 39.8 µM (inactive).

For the compound `CC(=O)Nc1ccc(S(=O)(=O)N2c3ccc(F)cc3CCC2C)cc1` (stereo unspecified), the IC50 result is “inactive”.

`COc1ccc(C)c2sc(N(CCN(C)C)C(=O)/C=C/c3cccs3)nc12`: the IC50 result was “inactive”.

For the compound `NC(=NCCCCCCN=C(N)/N=C(\N)Nc1ccc(Cl)cc1)/N=C(\N)Nc1ccc(Cl)cc1`, the IC50 is 6.22 µM and 6.86 µM.

Take `O=c1[nH]c(C2CCN(S(=O)(=O)c3ccc(F)cc3)CC2)nc2c1nnn2Cc1ccc2c(c1)OCCO2`: the IC50 entry was “inactive”.

With `COc1cc2c(cc1OC)C(C)N(CCc1ccc(Cl)cc1)CC2` (stereo unspecified), the IC50 is 9.34 µM.

As to `COc1cc(C)c2sc3ccccc3c(=O)c2c1NCCN(C)C`, the IC50 was > 39.8 µM (inactive).

As to `O=C(/C(=C/O)N=Nc1ccc(Cl)cc1)c1ccncc1`, the half-inhibitory concentration (IC50) was 6.19 µM.

In the case of `Cc1nc2c(o1)CCc1ccccc1C2N1CCN(C)CC1` (stereo unspecified), the 50% inhibitory concentration (IC50) is 2.25 µM.

For `CCOc1cc(N)c(Cl)cc1C(=O)NCC1CN(Cc2ccc(F)cc2)CCO1` (stereo unspecified), the IC50 was 1.29 µM.

On to `CC(=O)Cc1cc(O)c2ccccc2c1OC(=O)c1ccccc1`, for which the IC50 was 3.56 µM.

On to `Cc1cc(C)c(NC(=O)C[N+](C)(C)CC(O)COc2cccc3ccccc23)c(C)c1` (stereo unspecified), for which the concentration for half-maximal inhibition (IC50) is 9.14 µM.

For `CC(C)c1ccc(N2C=Nc3ccc(C(C)C)cc3C2)cc1`, the concentration for half-maximal inhibition (IC50) was 1 µM.

As to `CC1Sc2ccc(S(=O)(=O)N3CCC(C(=O)NCc4ccc(Cl)cc4)CC3)cc2NC1=O` (stereo unspecified), the 50% inhibitory concentration (IC50) was 8.86 µM.

With `Cc1cc(C)c(NC(=O)CN2CCN3CCCC3C2)c(C)c1` (stereo unspecified), the half-maximal inhibitory concentration (IC50) is 7.06 µM.

In the case of `O=C(C[n+]1cccc(CNC(=O)c2ccc(OC(F)F)cc2)c1)Nc1cccc(C(F)(F)F)c1`, the IC50 is > 39.8 µM (inactive).

For `CN(C)CCCN(C(=O)CCc1ccccc1)c1nc2ccc(Br)cc2s1`, the IC50 entry is “inactive”.

`CCN(CC)CCN(CC(=O)Nc1c(C)cc(C)cc1C)C(=O)c1ccccc1`: the concentration for half-maximal inhibition (IC50) is 2.85 µM.

Take `CC1=CC(C)(C)Nc2ccc(OC(=O)C(C)N3C(=O)c4ccccc4C3=O)cc21` (stereo unspecified): the IC50 is 4.25 µM.

As for `CCCCOC(=O)Nc1cc(C(=O)OC)ccc1C(=O)OC`, the IC50 is 3.7 µM.
